Key:
[1] = target: recombinant His-tag Wip1(2-420) protein (amino acids #2-420) (Homo sapiens (Human), UniProt O15297); test: Wip1(2-420) phosphatase enzyme FDP assay; assay type: biochemical; conditions: fluorescein diphosphate (FDP) substrate, RT 2 hours, fluorescence Ex485/Em535; read-out: WIP1 (Truncated 2-420) FDP Assay: IC50
[2] = target: recombinant His-tag Wip1 full length protein (amino acids #1-605) (Homo sapiens (Human), UniProt O15297); test: Wip1 full length phosphatase enzyme FDP assay; assay type: biochemical; conditions: fluorescein diphosphate (FDP) substrate, RT 2 hours, fluorescence Ex485/Em535
recombinant His-tag Wip1 full length protein (amino acids #1-605), sequence (O15297 whole entry, the tested form may be a part): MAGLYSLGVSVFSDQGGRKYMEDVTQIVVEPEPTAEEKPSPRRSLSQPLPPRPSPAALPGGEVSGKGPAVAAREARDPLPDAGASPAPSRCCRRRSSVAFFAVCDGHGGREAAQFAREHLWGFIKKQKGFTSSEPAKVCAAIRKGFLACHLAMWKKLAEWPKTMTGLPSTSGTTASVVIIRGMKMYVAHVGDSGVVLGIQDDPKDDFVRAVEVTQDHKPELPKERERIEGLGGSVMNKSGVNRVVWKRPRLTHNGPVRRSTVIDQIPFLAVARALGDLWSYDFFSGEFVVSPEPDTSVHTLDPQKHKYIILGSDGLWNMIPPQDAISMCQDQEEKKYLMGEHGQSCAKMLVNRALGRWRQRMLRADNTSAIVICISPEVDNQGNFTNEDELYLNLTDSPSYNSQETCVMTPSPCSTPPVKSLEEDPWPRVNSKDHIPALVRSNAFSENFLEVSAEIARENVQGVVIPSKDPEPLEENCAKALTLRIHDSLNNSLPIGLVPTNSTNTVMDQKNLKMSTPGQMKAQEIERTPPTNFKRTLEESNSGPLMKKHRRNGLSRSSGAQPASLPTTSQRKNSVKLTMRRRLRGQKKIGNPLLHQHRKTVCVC
Method: The Human Wip1 (2-420, aa 2-420) or Wip1 full length (aa 1-605) DNA sequence was codon optimized and synthesized by Genscript for insect cell expression. The open reading frame of Wip1(2-420) with a N-terminal-His6 affinity tag followed by a TEV cleavage site was subcloned sites into the pFastBac1 expression vector. The recombinant bacmid DNA was transfected in Sf9 insect cells for baculovirus production. After 72 hours infection, the Sf9 cells were harvested by centrifugation and resuspended in lysis buffer containing 50 mM Tris/HCl, pH 8.0, 500 mM NaCl, 20% glycerol, Benzonase 0.5% CHAPS and Roche cOmplete™ EDTA free protease inhibitors. Cells were disrupted with microfluidizer and the debris was removed by centrifugation at 185,000 g for 1 hour. The supernatant was subjected to HisTrap FF for affinity purification. Proteins were eluted with a linear gradient of 0-500 mM imidazole in HisTrap buffer containing 50 mM Tris/HCl, pH 8.0, 500 mM NaCl and 20% glycerol, 0.05% CHAPS. The eluted protein was dialyzed against dialysis buffer (20 mM MES, 100 mM NaCl, 20% glycerol, 0.5 mM TCEP, 0.05% CHAPS) followed purification via HiTrap SP HP column. The protein was eluted with a gradient of 100 mM-2 M NaCl in dialysis buffer. His6-[…] was finally concentrated and loaded onto a size-exclusion column (NiLoad 16/600 Superdex 200 pg, GE Healthcare) pre-equilibrated with 50 mM MOPS (pH 7.5), 200 mM NaCl, 20% glycerol, 1 mM TCEP, 0.05% CHAPS and 0.1 mM EGTA. The peak fractions containing purified Nis6-Wip1(2-420) were pooled and concentrated to 1.0 mg/mL and flash frozen at −80° C.
Wip1 Length and Wip1(2-420) Phosphatase Enzyme FDP Assays.
Test compounds (252 mM stock in DMSO) were diluted 3 folds in series in DMSO and 1.2 μl per well were added into 384-well polypropylene black plates (Nunc). Twelve μl per well of Assay Buffer (100 mM NaCl, 50 mM MOPS, pH 7.5, 0.8 mM CHAPS, 0.1 mM EGTA, 30 mM MgCl2, 0.3 mM TCEP, 0.2 mg/mL BSA) was added followed by […] per well of 50.4 nM recombinant His-tag Wip1 full length protein (amino acids #1-605) or recombinant His-tag Wip1(2-420) protein (amino acids #2-420) in Assay Buffer and the plate was incubated at RT (22° C.) for 5 min. Ten mM of fluorescein diphosphate (FDP) in DMSO was diluted to […] in Assay Buffer and […] per well was added to the plate and incubated at RT (22° C.) for 2 hours. […] per well of 64.1 mM EDTA in water were added to stop the enzyme reaction. The plate was centrifuged at 1,200 rpm (Eppendorf 5810R Plate centrifuge) for 1 minute and fluorescence intensity (Ex485/Em535) was measured on Perkin Elmer Victor Reader. EC50 values were calculated using either Prism (GraphPad) or ActivityBase software (IDBS), The IC50 results are provided in Table M.

recombinant His-tag Wip1(2-420) protein (amino acids #2-420), sequence (O15297 2-420): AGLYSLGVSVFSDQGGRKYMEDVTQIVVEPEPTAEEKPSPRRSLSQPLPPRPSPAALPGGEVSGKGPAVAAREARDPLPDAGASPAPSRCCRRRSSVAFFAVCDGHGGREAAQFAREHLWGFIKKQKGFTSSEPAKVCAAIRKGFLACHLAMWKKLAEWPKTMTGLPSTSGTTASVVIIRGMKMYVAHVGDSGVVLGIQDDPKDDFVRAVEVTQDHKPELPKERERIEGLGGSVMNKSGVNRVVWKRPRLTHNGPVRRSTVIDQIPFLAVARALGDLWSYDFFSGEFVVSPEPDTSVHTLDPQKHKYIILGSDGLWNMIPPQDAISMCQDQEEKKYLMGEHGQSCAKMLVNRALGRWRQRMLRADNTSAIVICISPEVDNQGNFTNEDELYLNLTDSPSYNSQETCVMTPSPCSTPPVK

For Cc1ncc(Cl)cc1N[C@@H](C)c1ccc(C(=O)N[C@@H](CC2CCCC2)C(=O)NC2(C#N)CC2)s1 [Compound 34, (2S)-2-({5-[(1S)-1-[(5-chloro-2-methylpyridin-3-yl)amino]ethyl]thiophen-2-yl}formamido)-N-(1-cyanocyclopropyl)-3-cyclopentylpropanamide], the IC50 [1] was 17 nM and the IC50 [2] was 34 nM.

For Cc1ncc(Cl)cc1N[C@@H](C)c1ccc(C(=O)N[C@@H](CC2CCCC2)C(=O)NC2COC2)s1 [Compound 27, (2S)-2-({5-[(1S)-1-[(5-chloro-2-methylpyridin-3-yl)amino]ethyl]thiophen-2-yl}formamido)-3-cyclopentyl-N-(oxetan-3-yl)propanamide], the IC50 [1] was 6 nM and the IC50 [2] was 10 nM.

For CN(Cc1ncc(C(=O)N[C@@H](CC2CCCCC2)C(=O)Nc2ccncc2)s1)c1cncc(Cl)c1 [Compound 301, 2-[[(5-Chloro-3-pyridyl)-methyl-amino]methyl]-N-[(1S)-1-(cyclohexylmethyl)-2-oxo-2-(4-pyridylamino)ethyl]thiazole-5-carboxamide], the IC50 [1] was 42 nM and the IC50 [2] was 23 nM.

For Cc1ncc(Cl)cc1N[C@@H](C)c1ccc(C(=O)N[C@@H](CC2CCCC2)C(=O)NC2CC2(F)F)s1 (stereo partly drawn) [Compound 14, (2S)-2-({5-[(1S)-1-[(5-chloro-2-methylpyridin-3-yl)amino]ethyl]thiophen-2-yl}formamido)-3-cyclopentyl-N-(2,2-difluorocyclopropyl)propanamide], the IC50 [1] was 7 nM and the IC50 [2] was 6 nM.

For Cc1ncc(Cl)cc1N[C@@H](C)c1ccc(C(=O)N[C@@H](CC2CCCC2)C(=O)NC(C)(C)C#N)s1 [Compound 65, (2S)-2-({5-[(1S)-1-[(5-chloro-2-methylpyridin-3-yl)amino]ethyl]thiophen-2-yl}formamido)-N-(1-cyano-1-methylethyl)-3-cyclopentylpropanamide], the IC50 [1] was 8 nM and the IC50 [2] was 10 nM.

O=C(N[C@@H](CC1CCCCC1)C(=O)NC1CC1)c1cnc(CN2CCc3ccc(C(F)(F)F)cc32)s1 [Compound 306, N-[(1S)-1-(cyclohexylmethyl)-2-(cyclopropylamino)-2-oxo-ethyl]-2-[[6-(trifluoromethyl)indolin-1-yl]methyl]thiazole-5-carboxamide] showed an IC50 [1] of 83 nM and an IC50 [2] of 38 nM.

Molecule CN(Cc1ncc(C(=O)N[C@@H](CC2CCCCC2)C(=O)N[C@H]2CC[C@H](N(C)C)CC2)s1)c1cncc(Cl)c1 [Compound 303, 2-[[(5-chloro-3-pyridyl)-methyl-amino]methyl]-N-[(1S)-1-(cyclohexylmethyl)-2-[[4-(dimethylamino)cyclohexyl]amino]-2-oxo-ethyl]thiazole-5-carboxamide] has an IC50 [1] of 67 nM and an IC50 [2] of 67 nM.

For Cc1ncc(Cl)cc1N[C@@H](C)c1ccc(C(=O)N[C@@H](CC2CCCC2)C(=O)NC23CC(O)(C2)C3)s1 [Compound 20, (2S)-2-({5-[(1S)-1-[(5-chloro-2-methylpyridin-3-yl)amino]ethyl]thiophen-2-yl}formamido)-3-cyclopentyl-N-{3-hydroxybicyclo[1.1.1]pentan-1-yl}propanamide], the IC50 [1] was 8 nM and the IC50 [2] was 10 nM.

With O=C(N[C@@H](CC1CCCCC1)C(=O)Nc1ccccn1)c1cnc(CNc2cncc(Cl)c2)s1 [Compound 302, 2-[[(5-chloro-3-pyridyl)amino]methyl]-N-[(1S)-1-(cyclohexylmethyl)-2-oxo-2-(2-pyridylamino)ethyl]thiazole-5-carboxamide] the IC50 [1] was 55 nM and the IC50 [2] was 15 nM.

With Cc1cc(NC(=O)[C@H](CC2CCCC2)NC(=O)c2cnc([C@H](C)Nc3cccc(Cl)c3)s2)ccn1 [Compound 119, (2S)-2-({2-[(1S)-1-[(3-chlorophenyl)amino]ethyl]-1,3-thiazol-5-yl}formamido)-3-cyclopentyl-N-(2-methylpyridin-4-yl)propanamide] the IC50 [1] was 70 nM and the IC50 [2] was 115 nM.

CC[C@H](Nc1cc(Cl)cnc1C)c1ccc(C(=O)N[C@@H](CC2CCCC2)C(=O)NC23CC(C#N)(C2)C3)s1 [Compound 80, (2S)-2-({5-[(1S)-1-[(5-chloro-2-methylpyridin-3-yl)amino]propyl]thiophen-2-yl}formamido)-N-{3-cyanobicyclo[1.1.1]pentan-1-yl}-3-cyclopentylpropanamide] gave an IC50 [1] of 10 nM and an IC50 [2] of 18 nM.

Molecule COc1ncc(Cl)cc1N[C@@H](C)c1ccc(C(=O)N[C@@H](CC2CCCC2)C(=O)NC23CC(C#N)(C2)C3)s1 [Compound 82, (2S)-2-({5-[(1S)-1-[(5-chloro-2-methoxypyridin-3-yl)amino]ethyl]thiophen-2-yl}formamido)-N-{3-cyanobicyclo[1.1.1]pentan-1-yl}-3-cyclopentylpropanamide] has an IC50 [1] of 13 nM and an IC50 [2] of 20 nM.

COc1ncc(Cl)cc1N[C@@H](C)c1ccc(C(=O)N[C@@H](CC2CCCC2)C(=O)N[C@@H]2CC2(F)F)s1 [Compound 40, (2S)-2-({5-[(1S)-1-[(5-chloro-2-methoxypyridin-3-yl)amino]ethyl]thiophen-2-yl}formamido)-3-cyclopentyl-N-[(1R)-2,2-difluorocyclopropyl]propanamide] was tested, and the IC50 [1] was 149 nM and the IC50 [2] was 181 nM.

CC(Nc1ccc(F)c(Cl)c1)c1ccc(C(=O)N[C@@H](CC2CCCC2)C(=O)NC2CC2)s1 (stereo partly drawn) [Compound 3, 5-[1-(3-chloro-4-fluoro-anilino)ethyl]-N-[(1S)-1-(cyclopentylmethyl)-2-(cyclopropylamino)-2-oxo-ethyl]thiophene-2-carboxamide] gave an IC50 [1] of 60 nM and an IC50 [2] of 28 nM.

Cc1ncc(Cl)cc1N[C@@H](C)c1ccc(C(=O)N[C@@H](CC2CCCC2)C(=O)NC2CCS(=O)(=O)CC2)s1 [Compound 58, (2S)-2-({5-[(1S)-1-[(5-chloro-2-methylpyridin-3-yl)amino]ethyl]thiophen-2-yl}formamido)-3-cyclopentyl-N-(1,1-dioxo-1λ^6-thian-4-yl)propanamide] showed an IC50 [1] of 9 nM and an IC50 [2] of 12 nM.

Molecule Cc1ncc(Cl)cc1N[C@@H](C)c1ccc(C(=O)N[C@@H](CC2CCCC2)C(=O)Nc2ccc3c(c2)CCCN3C)s1 [Compound 168, (2S)-2-({5-[(1S)-1-[(5-chloro-2-methylpyridin-3-yl)amino]ethyl]thiophen-2-yl}formamido)-3-cyclopentyl-N-(1-methyl-1,2,3,4-tetrahydroquinolin-6-yl)propanamide] has an IC50 [1] of 11 nM and an IC50 [2] of 15 nM.

Molecule Cc1cc(NC(=O)[C@H](CC2CCCC2)NC(=O)c2ccc([C@H](C)Nc3cc(Cl)cnc3C)s2)cc(C)n1 [Compound 62, (2S)-2-({5-[(1S)-1-[(5-chloro-2-methylpyridin-3-yl)amino]ethyl]thiophen-2-yl}formamido)-3-cyclopentyl-N-(2,6-dimethylpyridin-4-yl)propanamide] has an IC50 [1] of 6 nM and an IC50 [2] of 10 nM.

COc1ncc(Cl)cc1N[C@@H](C)c1ccc(C(=O)N[C@@H](CC2CCCC2)C(=O)N[C@H]2CC2(F)F)s1 [Compound 49, (2S)-2-({5-[(1S)-1-[(5-chloro-2-methoxypyridin-3-yl)amino]ethyl]thiophen-2-yl}formamido)-3-cyclopentyl-N-[(1S)-2,2-difluorocyclopropyl]propanamide] gave an IC50 [1] of 104 nM and an IC50 [2] of 164 nM.

Cc1ncc(Cl)cc1NCc1ncc(C(=O)N[C@@H](CC2CCCCC2)C(=O)Nc2ccncc2)s1 [Compound 300, 2-[[(5-chloro-2-methyl-3-pyridyl)amino]methyl]-N-[(1S)-1-(cyclohexylmethyl)-2-oxo-2-(4-pyridylamino)ethyl]thiazole-5-carboxamide] was tested, and the IC50 [1] was 6 nM and the IC50 [2] was 15 nM.

Molecule COc1cc(NC(=O)[C@H](CC2CCCC2)NC(=O)c2ccc([C@H](C)Nc3cc(Cl)cnc3C)s2)ccn1 [Compound 156, (2S)-2-({5-[(1S)-1-[(5-chloro-2-methylpyridin-3-yl)amino]ethyl]thiophen-2-yl}formamido)-3-cyclopentyl-N-(2-methoxypyridin-4-yl)propanamide] has an IC50 [1] of 4 nM and an IC50 [2] of 9 nM.

Reference: patent publication US20240116910A1, “Heterocycles as WIP1 Inhibitors” (PMV Pharmaceuticals, Inc., priority 2022, published 2024)
